10 compounds from ChEMBL document CHEMBL4396938, “New amide linked dimeric 1,2,3-triazoles bearing aryloxy scaffolds as a potent antiproliferative agents and EGFR tyrosine kinase phosphorylation inhibitors” (Bioorg Med Chem Lett, 2019) can be followed below.

A word on the IC50: it is the concentration that gives 50% inhibition. For orientation: inhibition means the change of the read-out against control, counted positive when it falls. Low values mean a weak effect, high ones a strong effect.

For data set [1], the system named is MCF7. Kind of data set: Antiproliferative activity against human MCF7 cells assessed as growth inhibition at 10 uM incubated for 24 hrs by MTT assay (reference value: 0%). Format: functional. As to conditions: MCF7, 24 h, read-out: GI. A general note: Formazan colour is commonly taken as a measure of viable cells.
In data set [2] the test system is MCF7. Kind of data set: Antiproliferative activity against human MCF7 cells assessed as growth inhibition at 1 uM incubated for 24 hrs by MTT assay (reference value: 0%). Format: functional. The conditions noted are these: MCF7, 24 h, read-out: GI.
Data set [3] deals with MCF7. Kind of data set: Antiproliferative activity against human MCF7 cells assessed as growth inhibition at 0.1 uM incubated for 24 hrs by MTT assay (reference value: 0%). The conditions noted are these: MCF7, 24 h, read-out: GI. Format: functional.
Data set [4] relates to A549. Kind of data set: Antiproliferative activity against human A549 cells assessed as growth inhibition at 10 uM incubated for 24 hrs by MTT assay (reference value: 0%). Format: functional. The conditions noted are these: A549, 24 h, read-out: GI.
The test system of data set [5] is A549. Kind of data set: Antiproliferative activity against human A549 cells assessed as growth inhibition at 1 uM incubated for 24 hrs by MTT assay (reference value: 0%). In kind it is functional. The conditions noted are these: A549, 24 h, read-out: GI.
Data set [6] has as its system A549. Kind of data set: Antiproliferative activity against human A549 cells assessed as growth inhibition at 0.1 uM incubated for 24 hrs by MTT assay (reference value: 0%). The conditions noted are these: A549, 24 h, read-out: GI. Format: functional.
Data set [7] deals with A549. Kind of data set: Antiproliferative activity against human A549 cells assessed as reduction in cell growth incubated for 24 hrs by MTT assay. Format: functional, cell-based. The conditions noted are these: A549, 24 h.
The test system of data set [8] is MCF7. Put plainly: Antiproliferative activity against human MCF7 cells assessed as reduction in cell growth incubated for 24 hrs by MTT assay. In kind it is functional, cell-based. The conditions noted are these: MCF7, 24 h.
The target in data set [9] is Epidermal growth factor receptor (Homo sapiens) (UniProt P00533). The conditions noted are these: MCF7, at 10 µM.
Sequence of Epidermal growth factor receptor (Homo sapiens) (P00533 whole entry): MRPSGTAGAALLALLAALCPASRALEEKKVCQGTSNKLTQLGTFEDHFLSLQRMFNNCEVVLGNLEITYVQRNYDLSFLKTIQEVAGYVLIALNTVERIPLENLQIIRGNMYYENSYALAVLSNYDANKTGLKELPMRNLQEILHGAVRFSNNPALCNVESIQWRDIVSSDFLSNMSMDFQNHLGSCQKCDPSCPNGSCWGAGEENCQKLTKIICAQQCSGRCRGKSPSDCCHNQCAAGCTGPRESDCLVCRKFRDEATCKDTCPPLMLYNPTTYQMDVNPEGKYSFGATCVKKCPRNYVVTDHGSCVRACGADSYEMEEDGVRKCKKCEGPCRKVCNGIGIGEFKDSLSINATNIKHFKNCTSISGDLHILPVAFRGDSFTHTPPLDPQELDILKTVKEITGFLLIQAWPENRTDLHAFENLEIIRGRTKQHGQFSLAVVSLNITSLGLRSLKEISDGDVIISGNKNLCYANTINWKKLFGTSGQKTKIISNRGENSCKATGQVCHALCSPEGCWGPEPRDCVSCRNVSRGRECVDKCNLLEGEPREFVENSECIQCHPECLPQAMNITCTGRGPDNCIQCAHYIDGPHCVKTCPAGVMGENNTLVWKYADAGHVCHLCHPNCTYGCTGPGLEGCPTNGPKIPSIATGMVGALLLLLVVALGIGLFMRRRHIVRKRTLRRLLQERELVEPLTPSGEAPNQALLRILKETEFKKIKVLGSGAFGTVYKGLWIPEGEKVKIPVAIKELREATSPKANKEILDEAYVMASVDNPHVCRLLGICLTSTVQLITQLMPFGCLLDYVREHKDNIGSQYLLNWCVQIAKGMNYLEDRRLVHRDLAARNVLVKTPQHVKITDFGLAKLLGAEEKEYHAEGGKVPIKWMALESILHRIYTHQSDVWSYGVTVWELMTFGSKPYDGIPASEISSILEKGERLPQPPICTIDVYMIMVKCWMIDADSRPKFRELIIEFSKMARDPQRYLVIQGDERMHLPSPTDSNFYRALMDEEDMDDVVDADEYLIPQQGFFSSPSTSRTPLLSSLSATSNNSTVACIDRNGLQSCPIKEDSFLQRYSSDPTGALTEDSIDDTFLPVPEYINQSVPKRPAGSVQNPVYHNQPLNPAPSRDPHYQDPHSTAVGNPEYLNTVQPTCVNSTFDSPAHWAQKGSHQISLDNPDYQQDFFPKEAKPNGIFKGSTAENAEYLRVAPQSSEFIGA
Description: Inhibition of EGFR in human MCF7 cells assessed as reduction in EGFR phosphorylation at 10 uM incubated for 48 hrs by Western blot analysis
The test system of a further data set is MCF-10A. Kind of data set: Cytotoxicity against human MCF10A cells assessed as reduction in cell viability incubated for 24 hrs by MTT assay. In kind it is ADME, cell-based.
Data set [10] is described as follows: Selectivity index, ratio of cytotoxic IC50 for human MCF10A cells to antiproliferative IC50 for human MCF7 cells. In kind it is toxicity. As to conditions: MCF10A cells and MCF7 cells, read-out: Ratio IC50.

Molecules are shown by their SMILES.

Regarding `COc1ccc(NC(=O)Cn2cc(COc3cccc(OCc4cn(CC(=O)Nc5ccc(OC)cc5)nn4)c3)nn2)cc1`, the inhibition of growth at 10 µM in the data set with MCF7 [1] came out at 33.3%; with A549 [4], 94.5%. For the same compound, the inhibition of growth at 1 µM in the data set with MCF7 [2] worked out at 11.1%; in the data set on A549 [5], 42.8%. In addition, the inhibition of growth at 0.1 µM with MCF7 [3] was found to be 11.9%; in the data set with A549 [6] it was 7.26%. In the data set on A549 [7], the IC50 was 2.34 µM.

With `Cc1ccc(NC(=O)Cn2cc(COc3ccccc3OCc3cn(CC(=O)Nc4ccc(C)cc4)nn3)nn2)cc1`, the inhibition of growth at 10 µM in the data set with MCF7 [1] is 63.8%; in the data set with A549 [4] it was 86.6%. Also, the inhibition of growth at 1 µM in the data set with MCF7 [2] came out at 25.7%; in the data set on A549 [5], 12.8%. Moreover, the inhibition of growth at 0.1 µM with MCF7 [3] was determined as 25.4%; in the data set on A549 [6] it was 8.92%. Also, the half-maximal inhibitory concentration (IC50) with MCF7 [8] is 6.7 µM; in the data set with A549 [7] it was 5.56 µM. Also, in [9], the inhibition is 28.2%.

On to `O=C(Cn1cc(COc2ccccc2OCc2cn(CC(=O)Nc3ccccc3)nn2)nn1)Nc1ccccc1`, for which the values for the inhibition of growth at 10 µM with MCF7 [1] and with A549 [4] were 12.9% and 44.3%, respectively. The inhibition of growth at 1 µM in the data set with MCF7 [2] was 12.1%; in the data set with A549 [5], 6.8%. Further, the values for the inhibition of growth at 0.1 µM with MCF7 [3] and with A549 [6] were 11.3% and 0%, respectively.

On to `O=C(Cn1cc(COc2ccccc2OCc2cn(CC(=O)Nc3ccc(Cl)cc3)nn2)nn1)Nc1ccc(Cl)cc1`, for which the inhibition of growth at 10 µM with MCF7 [1] was 79.9%; in the data set on A549 [4], 73.5%. Besides, the inhibition of growth at 1 µM with MCF7 [2] turned out to be 42.9%; in the data set on A549 [5], 25.4%. Further, the inhibition of growth at 0.1 µM with MCF7 [3] was determined as 39%; in the data set on A549 [6], 1.89%. For the same compound, the half-inhibitory concentration (IC50) in the data set with MCF7 [8] was 2.8 µM; in the data set on A549 [7], 5.61 µM; in the data set on MCF-10A, 14 µM. The selectivity ratio in data set [10] turned out to be 5. Moreover, the inhibition in data set [9] was found to be 72.7%.

Take `O=C(Cn1cc(COc2cccc(OCc3cn(CC(=O)Nc4ccc([N+](=O)[O-])cc4)nn3)c2)nn1)Nc1ccc([N+](=O)[O-])cc1`: the inhibition of growth at 10 µM in the data set on MCF7 [1] is 5.44%; in the data set with A549 [4], 98.6%. Moreover, the inhibition of growth at 1 µM worked out at 4.58% with MCF7 [2] and 42.4% in the data set with A549 [5]. The inhibition of growth at 0.1 µM in the data set on MCF7 [3] is 4.96%; in the data set with A549 [6], 25.5%. In the data set with A549 [7], the half-maximal inhibitory concentration (IC50) stood at 2.22 µM.

Regarding `Cc1ccc(NC(=O)Cn2cc(COc3cccc(OCc4cn(CC(=O)Nc5ccc(C)cc5)nn4)c3)nn2)cc1`, the inhibition of growth at 10 µM stood at 82.6% in the data set on MCF7 [1] and 34.1% in the data set on A549 [4]. Further, the inhibition of growth at 1 µM with MCF7 [2] was 9.47%; in the data set on A549 [5] it was 7.51%. In addition, the inhibition of growth at 0.1 µM in the data set on MCF7 [3] is 5.16%; with A549 [6] it was 0%. In addition, the half-maximal inhibitory concentration (IC50) in the data set with MCF7 [8] was 6.01 µM. This compound yielded an inhibition in data set [9] of 76.9%.

In the case of `O=C(Cn1cc(COc2cccc(OCc3cn(CC(=O)Nc4ccc(Cl)cc4)nn3)c2)nn1)Nc1ccc(Cl)cc1`, the inhibition of growth at 10 µM stood at 64% with MCF7 [1] and 3.36% in the data set on A549 [4]. Besides, the figures for the inhibition of growth at 1 µM in the data set on MCF7 [2] and with A549 [5] were 31.7% and -0.17%, respectively. The inhibition of growth at 0.1 µM is 16.2% with MCF7 [3] and 1.16% in the data set on A549 [6]. The IC50 with MCF7 [8] was determined as 6.13 µM. In data set [9], this compound returned an inhibition of 32.6%.

On to `O=C(Cn1cc(COc2ccccc2OCc2cn(CC(=O)Nc3ccc([N+](=O)[O-])cc3)nn2)nn1)Nc1ccc([N+](=O)[O-])cc1`, for which the inhibition of growth at 10 µM in the data set on MCF7 [1] worked out at 12.7%; in the data set on A549 [4], 11.8%. Also, the inhibition of growth at 1 µM came to 15% in the data set on MCF7 [2] and 10.7% in the data set on A549 [5]. Also, the figures for the inhibition of growth at 0.1 µM with MCF7 [3] and in the data set on A549 [6] were 14.2% and 5.9%, respectively.

On to `O=C(Cn1cc(COc2cccc(OCc3cn(CC(=O)Nc4ccccc4)nn3)c2)nn1)Nc1ccccc1`, for which the values for the inhibition of growth at 10 µM in the data set with MCF7 [1] and in the data set on A549 [4] were 22.1% and 69.2%, respectively. In addition, the inhibition of growth at 1 µM in the data set on MCF7 [2] is 13.8%; in the data set with A549 [5], 10.8%. For the same compound, the inhibition of growth at 0.1 µM came to 14.5% in the data set with MCF7 [3] and 11.4% in the data set on A549 [6]. In addition, in the data set on A549 [7], the IC50 amounted to 7.05 µM.

With `COc1ccc(NC(=O)Cn2cc(COc3ccccc3OCc3cn(CC(=O)Nc4ccc(OC)cc4)nn3)nn2)cc1`, the inhibition of growth at 10 µM amounted to 96% in the data set with MCF7 [1] and 15.4% in the data set on A549 [4]. Moreover, the inhibition of growth at 1 µM with MCF7 [2] is 24%; in the data set on A549 [5], 6.56%. The inhibition of growth at 0.1 µM in the data set with MCF7 [3] turned out to be 18.4%; in the data set on A549 [6], 5.57%. For the same compound, the 50% inhibitory concentration (IC50) with MCF7 [8] worked out at 4.18 µM; with MCF-10A, 33.4 µM. Further, the selectivity ratio in [10] is 8. Moreover, the inhibition in data set [9] amounted to 88.3%.
